Measurements: publication PMC5586502 (Bioorganic & medicinal chemistry letters, 2017)

System: COX-1/2 (mixed COX-1 and COX-2)
Experiment: COX
Assay type: biochemical, ovine/human
Conditions: read-out: IC50 against COX-1/2; suggested from ~37% inhibition at 100 µM

With `COc1ccc(N(Nc2ccc(Br)cc2)c2ccccc2N(Nc2ccc(Br)cc2)c2ccccc2OC)cc1` [Compound 6] the IC50 was greater than 100 µM.
